From patent US20240150356A1, “Pyrimidine amide compounds and use thereof” (ALPHALA CO., LTD., priority 2019, published 2024)

test system: NCI-H460 (human lung cancer cell line); test: In vitro MTS cell viability assay (NCI-60 methodology), NCI-H460; assay type: cell-based; details: NCI-H460 cells, read-out: NCI-H460 LC50
Experimental: (§1) The cell viability measurement is based on the NCI-60 screening methodology (Nat. Rev. Cancer 6, 813-823, 2006). Briefly, cells are inoculated into 96-well plates at the optimal plating density. After 24 h, one of the two plates for Hep3B cell line is processed to determine a time zero cell viability (Tz) by MTS assay (Promega). Compounds are added over a 2-fold serial dilution to provide a total five drug concentrations plus DMSO control. Plates are incubated for a further 2 days, then measured cell viability by MTS assay [control growth (C) and test growth in the presence of drug at the five concentration levels (Ti)]. The LC50 is calculated from [(Ti−Tz)/Tz]×100=−50, which is the drug concentration resulting in a 50% reduction at the end of the drug treatment as compared to that at the beginning.
(§2) The compounds prepared in Tables 1-10 were tested in three in vitro assays, and the results are shown in Tables 1-10 for Hep3B and Table 11 for SW480 and NCI-H460 shown below. Herein, Hep3B refers to hepatocellular carcinoma cell line, SW480 refers to colon adenocarcinoma cell line, and NCI-H460 refers to human lung cancer cell line.
(§3) Shown in Tables 11 are in vitro activities of exemplary compounds of formula (I).

`Cn1ncc2c(NC(=O)c3ccc([N+](=O)[O-])s3)nc(-c3ccc(C(F)(F)F)cc3)nc21` [Compound 1-4, N-(1-methyl-6-(4-(trifluoromethyl)phenyl)-1H-pyrazolo[3,4-d]pyrimidin-4-yl)-5-nitrothiophene-2-carboxamide] and `Cn1ncc2c(NC(=O)c3ccc([N+](=O)[O-])s3)nc(-c3ccc(OC(F)(F)F)cc3)nc21` [Compound 1-5, N-(1-methyl-6-(4-(trifluoromethoxy)phenyl)-1H-pyrazolo[3,4-1]pyrimidin-4-yl)-5-nitrothiophene-2-carboxamide] are within 1.5-fold of each other in CC50: 3560 nM for the first, 2850 nM for the second.

Compound `Cn1ncc2c(NC(=O)c3ccc([N+](=O)[O-])s3)nc(/C=C/c3ccc(C(F)(F)F)cc3)nc21` [Compound 1-11, (E)-N-(1-methyl-6-(4-(trifluoromethyl)styryl)-1H-pyrazolo[3,4-d]pyrimidin-4-yl)-5-nitrothiophene-2-carboxamide] has a CC50 of 2620 nM.

test system: SW480 (colon adenocarcinoma cell line); test: In vitro MTS cell viability assay (NCI-60 methodology), SW480; assay type: cell-based; details: Homo sapiens, SW480 cells, read-out: SW480 LC50
Experimental: as §1, §2, §3

`Cn1ncc2c(NC(=O)c3ccc([N+](=O)[O-])s3)nc(-c3ccc(C(F)(F)F)cc3)nc21` [Compound 1-4, N-(1-methyl-6-(4-(trifluoromethyl)phenyl)-1H-pyrazolo[3,4-d]pyrimidin-4-yl)-5-nitrothiophene-2-carboxamide] and `Cn1ncc2c(NC(=O)c3ccc([N+](=O)[O-])s3)nc(-c3ccc(OC(F)(F)F)cc3)nc21` [Compound 1-5, N-(1-methyl-6-(4-(trifluoromethoxy)phenyl)-1H-pyrazolo[3,4-1]pyrimidin-4-yl)-5-nitrothiophene-2-carboxamide] are within 1.5-fold of each other in CC50: 6190 nM for the first, 4320 nM for the second.

`Cn1ncc2c(NC(=O)c3ccc([N+](=O)[O-])s3)nc(/C=C/c3ccc(C(F)(F)F)cc3)nc21` [Compound 1-11, (E)-N-(1-methyl-6-(4-(trifluoromethyl)styryl)-1H-pyrazolo[3,4-d]pyrimidin-4-yl)-5-nitrothiophene-2-carboxamide] gave a CC50 of 2240 nM.

test system: Hep3B cells (hepatocellular carcinoma cell line); test: In vitro MTS cell viability assay (NCI-60 methodology), Hep3B; assay type: cell-based; details: Homo sapiens, 48 h, Table 1, MTS, 2 days drug incubation, 50% reduction vs time zero, read-out: Hep3B LC50
Outline: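 Following NCI-60 method, MTS viability of Hep3B measured 24 h after plating (time zero) and after a further 2-day exposure to five concentrations (2-fold series). LC50 defined where [(Ti−Tz)/Tz]×100 = −50.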

Compound `Cn1ncc2c(NC(=O)c3ccc([N+](=O)[O-])s3)nc(/C=C/c3ccc(C(F)(F)F)cc3)nc21` [Compound 1-11, (E)-N-(1-methyl-6-(4-(trifluoromethyl)styryl)-1H-pyrazolo[3,4-d]pyrimidin-4-yl)-5-nitrothiophene-2-carboxamide] has an LC50 of 1710 nM.

same assay, conditions: Homo sapiens, 48 h, Table 10, MTS, 2 days drug incubation, 50% reduction vs time zero, read-out: Hep3B LC50

First: COc1ccc(-c2nc(NC(=O)c3ccc([N+](=O)[O-])s3)c3cnn(C4CCCCC4)c3n2)cc1OC [Compound 10-48, N-(1-cyclohexyl-6-(3,4-dimethoxyphenyl)-1H-pyrazolo[3,4-d]pyrimidin-4-yl)-5-nitrothiophene-2-carboxamide]
Second: COCCOc1ccc(-c2nc(NC(=O)c3ccc([N+](=O)[O-])s3)c3cnn(C4CCCCC4)c3n2)cc1 [Compound 10-50, N-(1-cyclohexyl-6-(4-(2-methoxyethoxy)phenyl)-1H-pyrazolo[3,4-d]pyrimidin-4-yl)-5-nitrothiophene-2-carboxamide]
The LC50 of the first is 2.7-fold lower: 970 nM for the first, 2640 nM for the second.

Going from `O=C(Nc1nc(-c2ccc(OCC(F)(F)F)nc2)nc2c1cnn2C1CCCCC1)c1ccc([N+](=O)[O-])s1` [Compound 10-49, N-(1-cyclohexyl-6-(6-(2,2,2-trifluoroethoxy)pyridin-3-yl)-1H-pyrazolo[3,4-d]pyrimidin-4-yl)-5-nitrothiophene-2-carboxamide] to `O=C(Nc1nc(-c2ccc(OCC(F)(F)C(F)F)nc2)nc2c1cnn2C1CCCCC1)c1ccc([N+](=O)[O-])s1` [Compound 10-52, N-(1-cyclohexyl-6-(6-(2,2,3,3-tetrafluoropropoxy)pyridin-3-yl)-1H-pyrazolo[3,4-d]pyrimidin-4-yl)-5-nitrothiophene-2-carboxamide], the LC50 falls from 630 nM to 420 nM (1.5-fold).

`COCCOc1ccc(-c2nc(NC(=O)c3ccc([N+](=O)[O-])s3)c3cnn(C4CCCCC4)c3n2)cn1` [Compound 10-51, N-(1-cyclohexyl-6-(6-(2-methoxyethoxy)pyridin-3-yl)-1H-pyrazolo[3,4-d]pyrimidin-4-yl)-5-nitrothiophene-2-carboxamide] and `CCOCCOCCOc1ccc(-c2nc(NC(=O)c3ccc([N+](=O)[O-])s3)c3cnn(C4CCCCC4)c3n2)cn1` [Compound 10-53, N-(1-cyclohexyl-6-(6-(2-(2-ethoxyethoxy)ethoxy)pyridin-3-yl)-1H-pyrazolo[3,4-d]pyrimidin-4-yl)-5-nitrothiophene-2-carboxamide] are within 1.5-fold of each other in LC50: 960 nM for the first, 1230 nM for the second.

`O=C(Nc1nc(-c2ccc(F)cc2)nc2c1cnn2C1CCC(F)(F)CC1)c1ccc([N+](=O)[O-])s1` [Compound 10-54, N-(1-(4,4-difluorocyclohexyl)-6-(4-fluorphenyl)-1H-pyrazolo[3,4-d]pyrimidin-4-yl)-5-nitrothiophene-2-carboxamide] and `O=C(Nc1nc(-c2ccc(Cl)cc2)nc2c1cnn2C1CCC(F)(F)CC1)c1ccc([N+](=O)[O-])s1` [Compound 10-56, N-(6-(4-chlorophenyl)-1-(4,4-difluorocyclohexyl)-1H-pyrazolo[3,4,d]pyrimidin-4-yl)-5-nitrothiophene-2-carboxamide] are within 1.5-fold of each other in LC50: 920 nM for the first, 770 nM for the second.

Compared with `O=C(Nc1nc(-c2ccc(C(F)(F)F)cc2)nc2c1cnn2C1CCC(F)(F)CC1)c1ccc([N+](=O)[O-])s1` [Compound 10-58, N-(1-(4,4-difluorocyclohexyl)-6-(4-(trifluoromethyl)phenyl)-1H-pyrazolo[3,4-d]pyrimidin-4-yl)-5-nitrothiophene-2-carboxamide], `CCOc1ccc(-c2nc(NC(=O)c3ccc([N+](=O)[O-])s3)c3cnn(C4CCC(F)(F)CC4)c3n2)cc1` [Compound 10-59, N-(1-(4,4<fluorocyclohexyl)-4-(4-ethoxyphenyl)-1H-pyrazolo[3,4-d]pyrimidin-4-yl)-5-nitrothiophene-2-carboxamide] is 2.1-fold higher in LC50: 610 nM for the first, 1280 nM for the second.

First: CCCOc1ccc(-c2nc(NC(=O)c3ccc([N+](=O)[O-])s3)c3cnn(C4CCC(F)(F)CC4)c3n2)cc1 [Compound 10-60, N-(1-(4,4-difluorocyclohexyl)-6-(4-propoxyphenyl)-1H-pyrazolo[3,4-d]pyrimidin-4-yl)-5-nitrothiophene-2-carboxamide]
Second: CC1(C)CCC(n2ncc3c(NC(=O)c4ccc([N+](=O)[O-])s4)nc(-c4ccc(F)cc4)nc32)CC1 [Compound 10-61]
The LC50 of the first is 1.5-fold higher: 830 nM for the first, 550 nM for the second.

`CC1(C)CCC(n2ncc3c(NC(=O)c4ccc([N+](=O)[O-])s4)nc(-c4ccc(F)nc4)nc32)CC1` [Compound 10-62, N-(1-(4,4-dimethylcyclohexyl)-6-(6-fluoropyridin-3-yl)-1H-pyrazolo[3,4-d]pyrimidin-4-yl)-5-nitrothiophene-2-carboxamide] and `CC1(C)CCC(n2ncc3c(NC(=O)c4ccc([N+](=O)[O-])s4)nc(-c4ccc(Cl)nc4)nc32)CC1` [Compound 10-64, N-(6-(6-chloropyridin-3-yl)-1-(4,4-dimethylcyclohexyl)-1H-pyrazolo[3,4-d]pyrimidin-4-yl)-5-nitrothiophene-2-carboxamide] are within 1.5-fold of each other in LC50: 710 nM for the first, 570 nM for the second.

`CC1(C)CCC(n2ncc3c(NC(=O)c4ccc([N+](=O)[O-])s4)nc(-c4ccc(Cl)cc4)nc32)CC1` [Compound 10-63, N-(6(4-chlorophenyl)-1-(4,4-dimethylcyclohexyl)-1H-pyrazolo[3,4-d]pyrimidin-4-yl)-5-nitrothiophene-2-carboxamide] and `CC1(C)CCC(n2ncc3c(NC(=O)c4ccc([N+](=O)[O-])s4)nc(-c4ccc(Cl)cc4F)nc32)CC1` [Compound 10-65, N-(6-(4-chloro-2-fluorophenyl)-1-(4,4-dimethylcyclohexyl)-1H-pyrazolo[3,4-d]pyrimidin-4-yl)-5-nitrothiophene-2-carboxamide] are within 1.5-fold of each other in LC50: 860 nM for the first, 580 nM for the second.

Compared with `CC1(C)CCC(n2ncc3c(NC(=O)c4ccc([N+](=O)[O-])s4)nc(-c4ccc5c(c4)OCO5)nc32)CC1` [Compound 10-66, N-(6-(benzo[d][1,3]dioxol-5-yl)-1-(4,4-dimethylcyclohexyl)-1H-pyrazolo[3,4-d]pyrimidin-4-yl)-5-nitrothiophene-2-carboxamide], `CC1CC(C)CC(n2ncc3c(NC(=O)c4ccc([N+](=O)[O-])s4)nc(-c4ccc(F)nc4)nc32)C1` (stereo not drawn) [Compound 10-68, N-(1-(3,5-dimethylcyclohexyl)-6-(6-fluoropyridin-3-yl)-1H-pyrazolo[3,4-d]pyrimidin-4-yl)-5-nitrothiophene-2-carboxamide] is 1.6-fold higher in LC50: 610 nM for the first, 970 nM for the second.

`CC1CC(C)CC(n2ncc3c(NC(=O)c4ccc([N+](=O)[O-])s4)nc(-c4ccc(F)cc4)nc32)C1` (stereo not drawn) [Compound 10-67, N-(1-(3,5-dimethylcyclohexyl)-6-(4-fluorophenyl)-1H-pyrazolo[3,4-d]pyrimidin-4-yl)-5-nitrothiophene-2-carboxamide] and `CC1CC(C)CC(n2ncc3c(NC(=O)c4ccc([N+](=O)[O-])s4)nc(-c4ccc(Cl)cc4)nc32)C1` (stereo not drawn) [Compound 10-69, N-(6-(4-chlorophenyl)-1-(3,5-dimethylcyclohexyl)-1H-pyrazolo[3,4-d]pyrimidin-4-yl)-5-nitrothiophene-2-carboxamide] are within 1.5-fold of each other in LC50: 650 nM for the first, 860 nM for the second.

`CC1CC(C)CC(n2ncc3c(NC(=O)c4ccc([N+](=O)[O-])s4)nc(-c4ccc(Cl)nc4)nc32)C1` (stereo not drawn) [Compound 10-70, N-(6-(6-chloropyridin-3-yl)-1-(3,5-dimethylcyclohexyl)-1H-pyrazolo[3,4-d]pyrimidin-4-yl)-5-nitrothiophene-2-carboxamide] and `CC1CC(C)CC(n2ncc3c(NC(=O)c4ccc([N+](=O)[O-])s4)nc(-c4ccc(Cl)cc4F)nc32)C1` (stereo not drawn) [Compound 10-72, N-(6-(4-chloro-2-fluorophenyl)-1-(3,5-dimethylcyclohexyl)-1H-pyrazolo[3,4-d]pyrimidin-4-yl)-5-nitrothiophene-2-carboxamide] are within 1.5-fold of each other in LC50: 960 nM for the first, 760 nM for the second.

With `COC(=O)c1ccc(-c2nc(NC(=O)c3ccc([N+](=O)[O-])s3)c3cnn(C4CC(C)CC(C)C4)c3n2)cc1` (stereo not drawn) [Compound 10-71, methyl 4-(1-(3,5-dimethylcyclohexyl)-4-(5-nitrothiophene-2-carboxamido)-1H-pyrazolo[3,4-d]pyrimidin-6-yl)benzoate] the LC50 was 690 nM.
